Molecular target: T1, ΔF508-CFTR (Homo sapiens, UniProt P13569, DEL508-508)
T1 construct: expressed in transfected cells
Test: Membrane potential optical (FRET/VIPR) assay, identification of potentiator compounds
Format: cell-based
Conditions: Table 3, assay not given; for % Activity: relative efficacy
How it was run: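 Double-addition potentiator screen: compound delivered in gluconate-substituted Cl^--free medium, membrane potential followed via CC2-DMPE/DiSBAC2(3) FRET on VIPR. Cells were ΔF508-CFTR-expressing NIH3T3 mouse fibroblasts, held 2 h at 37° C. then 24 h at 27° C. before assay.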

T1 sequence (P13569 with tags, fused parts or gaps DEL508-508): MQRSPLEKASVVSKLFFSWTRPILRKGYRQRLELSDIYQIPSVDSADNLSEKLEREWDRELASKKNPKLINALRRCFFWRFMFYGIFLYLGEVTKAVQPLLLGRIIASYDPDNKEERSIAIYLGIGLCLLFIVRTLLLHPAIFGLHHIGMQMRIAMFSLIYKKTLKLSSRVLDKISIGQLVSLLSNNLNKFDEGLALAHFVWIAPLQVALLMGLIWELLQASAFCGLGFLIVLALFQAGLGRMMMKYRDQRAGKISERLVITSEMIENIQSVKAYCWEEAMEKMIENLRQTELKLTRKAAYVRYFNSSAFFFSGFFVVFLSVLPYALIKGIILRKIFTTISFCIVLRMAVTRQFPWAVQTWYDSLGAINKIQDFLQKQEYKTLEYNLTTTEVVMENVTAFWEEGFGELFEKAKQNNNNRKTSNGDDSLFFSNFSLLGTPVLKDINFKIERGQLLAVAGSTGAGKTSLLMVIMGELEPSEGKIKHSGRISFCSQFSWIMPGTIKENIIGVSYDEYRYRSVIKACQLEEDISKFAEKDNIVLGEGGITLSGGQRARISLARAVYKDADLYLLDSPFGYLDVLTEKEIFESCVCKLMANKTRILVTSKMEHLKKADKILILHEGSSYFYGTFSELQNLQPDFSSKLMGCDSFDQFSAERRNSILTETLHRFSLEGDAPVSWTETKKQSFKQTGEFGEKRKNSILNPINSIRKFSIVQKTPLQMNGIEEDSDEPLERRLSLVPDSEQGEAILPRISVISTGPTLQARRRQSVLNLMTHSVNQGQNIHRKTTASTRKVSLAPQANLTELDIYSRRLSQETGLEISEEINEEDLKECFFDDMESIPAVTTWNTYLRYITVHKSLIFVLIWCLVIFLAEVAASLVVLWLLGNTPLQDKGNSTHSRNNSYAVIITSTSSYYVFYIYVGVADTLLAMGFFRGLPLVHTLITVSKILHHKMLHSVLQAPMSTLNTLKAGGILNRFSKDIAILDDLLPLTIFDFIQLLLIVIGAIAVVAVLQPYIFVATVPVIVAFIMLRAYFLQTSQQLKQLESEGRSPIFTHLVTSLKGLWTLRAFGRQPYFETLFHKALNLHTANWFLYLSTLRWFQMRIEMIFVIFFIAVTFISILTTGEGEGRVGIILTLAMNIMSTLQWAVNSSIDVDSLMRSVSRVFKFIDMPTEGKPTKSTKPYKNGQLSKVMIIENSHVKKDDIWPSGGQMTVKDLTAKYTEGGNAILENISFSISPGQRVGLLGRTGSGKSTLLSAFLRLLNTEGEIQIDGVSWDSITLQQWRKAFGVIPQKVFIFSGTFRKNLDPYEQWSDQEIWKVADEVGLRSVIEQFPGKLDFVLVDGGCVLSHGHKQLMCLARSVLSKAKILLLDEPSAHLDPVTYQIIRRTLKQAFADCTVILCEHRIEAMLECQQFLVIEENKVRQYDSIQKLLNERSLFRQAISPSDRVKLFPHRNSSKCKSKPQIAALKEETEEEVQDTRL

SMILES | EC50 [µM] | % Activity
Cc1ccc2c(=O)c(C(=O)Nc3cc4[nH]ccc4cc3C(C)(C)C)c[nH]c2c1 [Compound 704, 7-methyl-4-oxo-N-(5-tert-butyl-1H-indol-6-yl)-1H-quinoline-3-carboxamide] | < 10 | ++ (between 25% to 100%)
COC(=O)[C@]1(C)CCCN1c1ccc(NC(=O)c2c[nH]c3ccccc3c2=O)c(C(F)(F)F)c1 [Compound 631, (S)-methyl 2-methyl-1-(4-(4-oxo-1,4-dihydroquinoline-3-carboxamido)-3-(trifluoromethyl)phenyl)pyrrolidine-2-carboxylate] | < 10 | +++ (>100%)
COc1cc2c(=O)c(C(=O)Nc3cc(O)c(C(C)(C)C)cc3C(C)(C)C)c[nH]c2cc1F [Compound 709, 7-fluoro-N-(5-hydroxy-2,4-ditert-butyl-phenyl)-6-methoxy-4-oxo-1H-quinoline-3-carboxamide] | < 10 | +++ (>100%)
CCOC(=O)c1cc2cc[nH]c2cc1NC(=O)c1c[nH]c2ccccc2c1=O [Compound 188, 6-[(4-oxo-1H-quinolin-3-yl)carbonylamino]-1H-indole-5-carboxylic acid ethyl ester] | < 10 | ++ (between 25% to 100%)
CC(C)(C)c1cc(C(C)(C)C)c(NC(=O)c2c[nH]c3cc(O)ccc3c2=O)cc1O [Compound 652, 7-hydroxy-N-(5-hydroxy-2,4-ditert-butyl-phenyl)-4-oxo-1H-quinoline-3-carboxamide] | < 10 | ++ (between 25% to 100%)
CC1=NN(c2cccc(NC(=O)c3c[nH]c4ccccc4c3=O)c2)C(=O)C1 [Compound 212, N-[3-(3-methyl-5-oxo-1,4-dihydropyrazol-1-yl)phenyl]-4-oxo-1H-quinoline-3-carboxamide] | 25 to 60 | + (<25%)
Cc1cccc2c(=O)c(C(=O)Nc3ccc(C(C)C)cc3C(F)(F)F)c[nH]c12 [Compound 637, N-[4-isopropyl-2-(trifluoromethyl)phenyl]-8-methyl-4-oxo-1H-quinoline-3-carboxamide] | < 10 | + (<25%)
CC(C)(C)OC(=O)[C@@H]1CCCN1c1ccc(NC(=O)c2c[nH]c3ccccc3c2=O)c(C(F)(F)F)c1 [Compound 629, (S)-tert-butyl 1-(4-(4-oxo-1,4-dihydroquinoline-3-carboxamido)-3-(trifluoromethyl)phenyl)pyrrolidine-2-carboxylate] | < 10 | ++ (between 25% to 100%)
Cn1c(=O)oc2ccc(NC(=O)c3c[nH]c4ccccc4c3=O)cc21 [Compound 474, N-(3-methyl-2-oxo-3H-benzooxazol-5-yl)-4-oxo-1H-quinoline-3-carboxamide] | 25 to 60 | + (<25%)
O=C(Nc1cccc(S(=O)(=O)N2CCOCC2)c1)c1c[nH]c2ccccc2c1=O [Compound 185, N-(3-morpholinosulfonylphenyl)-4-oxo-1H-quinoline-3-carboxamide] | 25 to 60 | + (<25%)
O=C(Nc1ccc2nccnc2c1)c1c[nH]c2ccccc2c1=O [Compound 443, 4-oxo-N-quinoxalin-6-yl-1H-quinoline-3-carboxamide] | 25 to 60 | + (<25%)
CC(C)(C)c1ccc(NC(=O)c2c[nH]c3ccc(F)cc3c2=O)cc1F [Compound 527, 6-fluoro-N-(3-fluoro-4-tert-butyl-phenyl)-4-oxo-1H-quinoline-3-carboxamide] | < 10 | ++ (between 25% to 100%)
CC(C)(C)c1cc(Cl)c(NC(=O)c2c[nH]c3ccccc3c2=O)cc1O [Compound 291, N-(2-chloro-5-hydroxy-4-tert-butyl-phenyl)-4-oxo-1H-quinoline-3-carboxamide] | – | ++ (between 25% to 100%)
CCc1cc2cc[nH]c2cc1NC(=O)c1c[nH]c2cccc(O)c2c1=O [Compound 591, N-(5-ethyl-1H-indol-6-yl)-5-hydroxy-4-oxo-1H-quinoline-3-carboxamide] | < 10 | ++ (between 25% to 100%)
O=C(Nc1ccc2cc[nH]c2c1)c1cnc2ccc(Cl)cc2c1O [Compound 358, 6-chloro-4-hydroxy-N-(1H-indol-6-yl)quinoline-3-carboxamide] | < 10 | ++ (between 25% to 100%)
COc1ccc2[nH]cc(C(=O)Nc3ccc(N4CCC[C@@H]4C)cc3C(F)(F)F)c(=O)c2c1 [Compound 601, (S)-6-methoxy-N-(4-(2-methylpyrrolidin-1-yl)-2-(trifluoromethyl)phenyl)-4-oxo-1,4-dihydroquinoline-3-carboxamide] | < 10 | ++ (between 25% to 100%)
CCN(CC)c1ccc(NC(=O)c2c[nH]c3ccccc3c2=O)c(C)c1 [Compound 82, N-(4-diethylamino-2-methyl-phenyl)-4-oxo-1H-quinoline-3-carboxamide] | < 10 | ++ (between 25% to 100%)
Cc1cc(C(C)(C)C)c(O)cc1NC(=O)c1c[nH]c2ccc(F)cc2c1=O [Compound 683, 6-fluoro-N-(5-hydroxy-2-methyl-4-tert-butyl-phenyl)-4-oxo-1H-quinoline-3-carboxamide] | < 10 | ++ (between 25% to 100%)
CCc1cccc(CC)c1NC(=O)c1c[nH]c2ccccc2c1=O [Compound 325, N-(2,6-diethylphenyl)-4-oxo-1H-quinoline-3-carboxamide] | < 10 | ++ (between 25% to 100%)
COC(=O)c1cccc(-c2cc(C(C)(C)C)c(O)cc2NC(=O)c2c[nH]c3ccccc3c2=O)c1 [Compound 231, 3-[4-hydroxy-2-[(4-oxo-1H-quinolin-3-yl)carbonylamino]-5-tert-butyl-phenyl]benzoic acid methyl ester] | < 10 | ++ (between 25% to 100%)
CC1(c2cc(F)c(NC(=O)c3c[nH]c4ccc(F)cc4c3=O)cc2O)CCCCC1 [Compound 218, 6-fluoro-N-[2-fluoro-5-hydroxy-4-(1-methylcyclohexyl)-phenyl]-4-oxo-1H-quinoline-3-carboxamide] | < 10 | ++ (between 25% to 100%)
CCc1ccc(NC(=O)OC)cc1NC(=O)c1c[nH]c2ccccc2c1=O [Compound 249, [4-ethyl-3-[(4-oxo-1H-quinolin-3-yl)carbonylamino]phenyl]aminoformic acid methyl ester] | 10 to 25 | ++ (between 25% to 100%)
O=C(Nc1ccc2c(c1)CCO2)c1c[nH]c2ccccc2c1=O [Compound 467, N-(2,3-dihydrobenzofuran-5-yl)-4-oxo-1H-quinoline-3-carboxamide] | 25 to 60 | + (<25%)
O=C(Nc1ccc2cc[nH]c2c1)c1cnc2cc(C(F)(F)F)cc(C(F)(F)F)c2c1O [Compound 130, 4-hydroxy-N-(1H-indol-6-yl)-5,7-bis(trifluoromethyl)quinoline-3-carboxamide] | < 10 | ++ (between 25% to 100%)
Cc1cccc2[nH]cc(C(=O)Nc3ccc(OC(C)C)cc3C(F)(F)F)c(=O)c12 [Compound 547, N-[4-isopropoxy-2-(trifluoromethyl)phenyl]-5-methyl-4-oxo-1H-quinoline-3-carboxamide] | < 10 | +++ (>100%)

Next, values leading:

EC50 [µM] | % Activity | SMILES
25 to 60 | + (<25%) | Cc1cccnc1NC(=O)c1c[nH]c2ccccc2c1=O [Compound 192, N-(3-methyl-2-pyridyl)-4-oxo-1H-quinoline-3-carboxamide]
10 to 25 | +++ (>100%) | O=C(Nc1ccccc1-n1cccc1)c1c[nH]c2ccccc2c1=O [Compound 293, 4-oxo-N-[2-(1H-pyrrol-1-yl)phenyl]-1H-quinoline-3-carboxamide]
< 10 | ++ (between 25% to 100%) | O=C(Nc1ccc(C(F)(F)F)cc1)c1c[nH]c2ccccc2c1=O [Compound 236, 4-oxo-N-[4-(trifluoromethyl)phenyl]-1H-quinoline-3-carboxamide]
< 10 | +++ (>100%) | CC(C)(C)c1ccc(O)cc1NC(=O)c1c[nH]c2ccccc2c1=O [Compound 662, N-(5-hydroxy-2-tert-butyl-phenyl)-4-oxo-1H-quinoline-3-carboxamide]
< 10 | ++ (between 25% to 100%) | O=C(Nc1ccccc1-c1ccc(F)cc1)c1c[nH]c2ccccc2c1=O [Compound 182, N-[2-(4-fluorophenyl)phenyl]-4-oxo-1H-quinoline-3-carboxamide]
25 to 60 | + (<25%) | Cc1cccc(NC(=O)c2c[nH]c3ccccc3c2=O)n1 [Compound 173, N-(6-methyl-2-pyridyl)-4-oxo-1H-quinoline-3-carboxamide]
< 10 | + (<25%) | CC(CO)(CO)c1ccc(NC(=O)c2c[nH]c3ccccc3c2=O)cc1 [Compound 590, N-[4-[2-hydroxy-1-(hydroxymethyl)-1-methyl-ethyl]phenyl]-4-oxo-1H-quinoline-3-carboxamide]
< 10 | ++ (between 25% to 100%) | CC(C)(C)c1ccccc1Oc1ccccc1NC(=O)c1c[nH]c2ccccc2c1=O [Compound 178, 4-oxo-N-[2-(2-tert-butylphenoxy)phenyl]-1H-quinoline-3-carboxamide]
< 10 | ++ (between 25% to 100%) | O=C(Nc1ccc(-c2ccccc2)cc1)c1c[nH]c2ccccc2c1=O [Compound 397, 4-oxo-N-(4-phenylphenyl)-1H-quinoline-3-carboxamide]
< 10 | ++ (between 25% to 100%) | Cc1ccc(-c2ccccc2NC(=O)c2c[nH]c3ccccc3c2=O)cc1 [Compound 181, 4-oxo-N-[2-(p-tolyl)phenyl]-1H-quinoline-3-carboxamide]
< 10 | ++ (between 25% to 100%) | COc1ccccc1-c1ccccc1NC(=O)c1c[nH]c2ccccc2c1=O [Compound 355, N-[2-(2-methoxyphenyl)phenyl]-4-oxo-1H-quinoline-3-carboxamide]

Source: patent US8614327B2 (Vertex Pharmaceuticals Incorporated, priority 2004, dated 2013)
